According to BindingDB's records for doi:10.1021/jm000013n (The University of Queensland, 2000):

Experiment: Inhibition of virion associated RT activity relative to untreated, infected control in cord blood mononuclear cells (CBMC) infected with HIV -1 TC354 strain

Row | Structure (SMILES) | IC50
1 | O=C1N(Cc2ccc(CO)cc2)[C@H](Cc2ccccc2)[C@H](O)[C@@H](O)[C@@H](Cc2ccccc2)N1Cc1ccc(CO)cc1 [(4R,5S,6S,7R)-4,7-dibenzyl-5,6-dihydroxy-1,3-bis({[4-(hydroxymethyl)phenyl]methyl})-1,3-diazepan-2-one] | 110 nM
2 | CC[C@@H](C)[C@@H]1NC(=O)[C@@H](NC[C@@H](O)[C@H](Cc2ccccc2)NC(=O)[C@@H](NC(=O)c2ccc3ccccc3n2)C(C)C)Cc2ccc(cc2)OCCCNC1=O | 95 nM
